Experimental data taken from patent US10259810B2, “N-sulfonylated pyrazolo[3,4-b]pyridin-6-carboxamides and method of use” (AbbVie S.à.r.l., priority 2015, dated 2019).

Key:
ΔF508-CFTR [1] = target: T1, ΔF508-CFTR (Homo sapiens, UniProt P13569, DEL508-508); assay: CFTR cell surface levels using HRP-tagged ΔF508-CFTR expressing CFBE cells, intrinsic corrector capacity; assay type: cell-based; design: % Activation: concentration or dose not given beside the values; conditions: HRP-tagged ΔF508-CFTR expressing CFBE41o- cells, compound alone (intrinsic corrector capacity), 20 hours at 33° C.; for EC50: read-out: EC50
T1 construct: host or cells: CFBE41o-, doxycycline-inducible
T1 sequence (P13569 with tags, fused parts or gaps DEL508-508): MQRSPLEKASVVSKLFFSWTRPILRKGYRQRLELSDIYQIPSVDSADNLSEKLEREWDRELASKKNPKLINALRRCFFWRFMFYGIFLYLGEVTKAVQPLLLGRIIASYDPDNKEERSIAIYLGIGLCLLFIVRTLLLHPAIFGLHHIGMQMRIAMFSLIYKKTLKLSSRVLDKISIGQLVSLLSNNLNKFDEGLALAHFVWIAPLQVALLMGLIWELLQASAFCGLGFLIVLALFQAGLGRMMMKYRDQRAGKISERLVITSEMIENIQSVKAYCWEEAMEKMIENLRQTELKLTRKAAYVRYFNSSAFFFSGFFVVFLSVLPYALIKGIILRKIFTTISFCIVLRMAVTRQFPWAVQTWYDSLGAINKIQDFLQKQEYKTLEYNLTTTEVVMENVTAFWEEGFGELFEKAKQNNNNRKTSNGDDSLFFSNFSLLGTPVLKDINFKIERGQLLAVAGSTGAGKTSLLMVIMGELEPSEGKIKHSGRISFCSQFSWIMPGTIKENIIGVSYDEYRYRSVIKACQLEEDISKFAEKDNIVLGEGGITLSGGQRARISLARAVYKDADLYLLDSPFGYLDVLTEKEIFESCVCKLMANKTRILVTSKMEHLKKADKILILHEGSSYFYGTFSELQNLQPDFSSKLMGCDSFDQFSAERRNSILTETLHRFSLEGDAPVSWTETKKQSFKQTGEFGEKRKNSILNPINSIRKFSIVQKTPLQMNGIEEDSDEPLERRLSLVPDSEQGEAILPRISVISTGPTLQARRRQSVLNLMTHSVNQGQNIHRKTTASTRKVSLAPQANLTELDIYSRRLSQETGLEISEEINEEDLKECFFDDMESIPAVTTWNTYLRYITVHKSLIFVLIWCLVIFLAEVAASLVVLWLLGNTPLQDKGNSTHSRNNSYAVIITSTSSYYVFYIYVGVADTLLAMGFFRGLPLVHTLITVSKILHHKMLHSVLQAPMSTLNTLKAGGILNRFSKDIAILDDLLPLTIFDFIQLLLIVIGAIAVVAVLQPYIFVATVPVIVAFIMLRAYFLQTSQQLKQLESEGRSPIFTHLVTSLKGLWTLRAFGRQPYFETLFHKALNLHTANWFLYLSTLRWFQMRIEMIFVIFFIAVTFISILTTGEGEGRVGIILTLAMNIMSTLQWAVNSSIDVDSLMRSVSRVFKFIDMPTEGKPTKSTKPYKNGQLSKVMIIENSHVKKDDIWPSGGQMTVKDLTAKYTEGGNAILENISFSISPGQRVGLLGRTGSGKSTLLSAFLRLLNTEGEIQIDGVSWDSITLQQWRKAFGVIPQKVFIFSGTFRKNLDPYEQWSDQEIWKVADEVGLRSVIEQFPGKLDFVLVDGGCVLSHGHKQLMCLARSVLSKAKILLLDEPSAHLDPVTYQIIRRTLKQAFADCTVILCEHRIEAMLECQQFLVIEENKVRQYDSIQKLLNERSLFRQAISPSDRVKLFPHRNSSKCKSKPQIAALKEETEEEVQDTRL
In short: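 Read-out: chemiluminescent HRP activity of ECL4-HRP-tagged ΔF508-CFTR at the cell surface, 15 min substrate in dark. Normalized as 100×(sample−DMSO)/(positive control−DMSO).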

ΔF508-CFTR [2] = target: T1, ΔF508-CFTR; assay: CFTR cell surface levels using HRP-tagged ΔF508-CFTR expressing CFBE cells, in the presence of a co-corrector; assay type: cell-based; conditions: HRP-tagged ΔF508-CFTR CFBE cells, in the presence of 3 μM co-corrector; for EC50: read-out: EC50
In short: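 Chemiluminescent read-out of surface HRP (15 min, dark) after PBS washes. Activity is normalized as 100×(sample−DMSO)/(3 μM co-corrector alone−DMSO).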

| SMILES | % Activation (ΔF508-CFTR [1]) [%] | EC50 (ΔF508-CFTR [1]) [nM] | % Activation (ΔF508-CFTR [2]) [%] | EC50 (ΔF508-CFTR [2]) [nM] |
| --- | --- | --- | --- | --- |
| CC(C)c1nn(C2CCCCC2)c2nc(C(=O)NS(C)(=O)=O)cc(-c3ccc(N(C)C4CCOC4)nc3)c12 (stereo not shown) [Compound 122, 1-cyclohexyl-N-(methanesulfonyl)-4-{6-[methyl(oxolan-3-yl)amino]pyridin-3-yl}-3-(propan-2-yl)-1H-pyrazolo[3,4-b]pyridine-6-carboxamide] | 184.53 | 470 | 405.9 | 281 |
| CC(C)c1nn(-c2cccc(N(C)C)c2)c2nc(C(=O)NS(C)(=O)=O)cc(N3CCCCC3)c12 [Compound 157, 1-[3-(dimethylamino)phenyl]-N-(methanesulfonyl)-4-(piperidin-1-yl)-3-(propan-2-yl)-1H-pyrazolo[3,4-b]pyridine-6-carboxamide] | 327.8 | 460 | 542.17 | 359 |
| COCC1CCN(c2cc(C(=O)NS(=O)(=O)N3CCC(C(=O)N4CCN(C)CC4)CC3)nc3c2c(C2CCC2)nn3-c2ccccc2)CC1 [Compound 398, 3-cyclobutyl-4-[4-(methoxymethyl)piperidin-1-yl]-N-[4-(4-methylpiperazine-1-carbonyl)piperidine-1-sulfonyl]-1-phenyl-1H-pyrazolo[3,4-b]pyridine-6-carboxamide] | 173.7 | 181 | 324.03 | 73.6 |
| CC(C)c1nn(-c2cccc(OC(F)(F)F)c2)c2nc(C(=O)NS(C)(=O)=O)cc(-c3ccc(N4CCOCC4)cc3)c12 [Compound 126, N-(methanesulfonyl)-4-[4-(morpholin-4-yl)phenyl]-3-(propan-2-yl)-1-[3-(trifluoromethoxy)phenyl]-1H-pyrazolo[3,4-b]pyridine-6-carboxamide] | 309.17 | 597 | 487.53 | 322 |
| COC[C@@H]1CCCN1C1CCN(S(=O)(=O)NC(=O)c2cc(N3CCC(N4CCOCC4)CC3)c3c(C4CCC4)nn(-c4ccccc4)c3n2)CC1 [Compound 439, 3-cyclobutyl-N-{4-[(2S)-2-(methoxymethyl)pyrrolidin-1-yl]piperidine-1-sulfonyl}-4-[4-(morpholin-4-yl)piperidin-1-yl]-1-phenyl-1H-pyrazolo[3,4-b]pyridine-6-carboxamide] | 166.8 | 550 | 374.6 | 381 |
| CC(C)c1nn(C2CCCOC2)c2nc(C(=O)NS(C)(=O)=O)cc(-c3ccc(N4CCOCC4)cc3)c12 (stereo not shown) [Compound 39, N-(methanesulfonyl)-4-[4-(morpholin-4-yl)phenyl]-1-(oxan-3-yl)-3-(propan-2-yl)-1H-pyrazolo[3,4-b]pyridine-6-carboxamide] | 143.4 | 838 | 378.63 | 508 |
| CN(C)S(=O)(=O)NC(=O)c1cc(OCC2CCN(C3CCC3)CC2)c2c(C3CCC3)nn(-c3ccc(F)cc3)c2n1 [Compound 617, 3-cyclobutyl-4-[(1-cyclobutylpiperidin-4-yl)methoxy]-N-(dimethylsulfamoyl)-1-(4-fluorophenyl)-1H-pyrazolo[3,4-b]pyridine-6-carboxamide] | 137.1 | 871 | 324.25 | 978 |
| CC(C)c1nn(C2CCCCC2)c2nc(C(=O)NS(C)(=O)=O)cc(-c3cnc(N(C)C4CCOCC4)nc3)c12 [Compound 123, 1-cyclohexyl-N-(methanesulfonyl)-4-{2-[methyl(oxan-4-yl)amino]pyrimidin-5-yl}-3-(propan-2-yl)-1H-pyrazolo[3,4-b]pyridine-6-carboxamide] | 153.8 | 428 | 365.8 | 239 |
| CC(C)c1nn(C2CCCCC2)c2nc(C(=O)NS(C)(=O)=O)cc(-c3ccc(N4CCOC(C)(C)C4)nc3)c12 [Compound 94, 1-cyclohexyl-4-[6-(2,2-dimethylmorpholin-4-yl)pyridin-3-yl]-N-(methanesulfonyl)-3-(propan-2-yl)-1H-pyrazolo[3,4-b]pyridine-6-carboxamide] | 193.5 | 614 | 421.53 | 342 |
| COCC1CCN(c2cc(C(=O)NS(=O)(=O)CCNC(C)=O)nc3c2c(C2CCC2)nn3-c2ccccc2)CC1 [Compound 386, N-(2-acetamidoethanesulfonyl)-3-cyclobutyl-4-[4-(methoxymethyl)piperidin-1-yl]-1-phenyl-1H-pyrazolo[3,4-b]pyridine-6-] | 237.85 | 2120 | 385.05 | 685 |
| CN(C)S(=O)(=O)NC(=O)c1cc(-c2ccc(CCN3CCOCC3)cc2)c2c(C3CCC3)nn(C3CCCCC3)c2n1 [Compound 476, 3-cyclobutyl-1-cyclohexyl-N-(dimethylsulfamoyl)-4-{4-[2-(morpholin-4-yl)ethyl]phenyl}-1H-pyrazolo[3,4-b]pyridine-6-carboxamide] | 134.2 | 215 | 355.65 | 151 |
| CC1(COc2cc(C(=O)NS(C)(=O)=O)nc3c2c(C2CCC2)nn3-c2ccccc2)COC1 [Compound 254, 3-cyclobutyl-N-(methanesulfonyl)-4-[(3-methyloxetan-3-yl)methoxy]-1-phenyl-1H-pyrazolo[3,4-b]pyridine-6-carboxamide] | 117.5 | 400 | 312.1 | 370 |
| Cc1nn(C2CCCCC2)c2nc(C(=O)NS(C)(=O)=O)cc(-c3cnc(N(C)C)nc3)c12 [Compound 49, 1-cyclohexyl-4-[2-(dimethylamino)pyrimidin-5-yl]-N-(methanesulfonyl)-3-methyl-1H-pyrazolo[3,4-b]pyridine-6-carboxamide] | 115.3 | 2570 | 338 | 2000 |
| CS(=O)(=O)NC(=O)c1cc(N2CCC(N3CCCC(C(F)(F)F)C3)CC2)c2c(C3CCC3)nn(-c3ccc(F)cc3)c2n1 (stereo not shown) [Compound 586, 3-cyclobutyl-1-(4-fluorophenyl)-N-(methanesulfonyl)-4-[3-(trifluoromethyl)[1,4'-bipiperidin]-1'-yl]-1H-pyrazolo[3,4-b]pyridine-6-carboxamide] | 331.67 | 52.4 | 618.65 | 37.1 |
| CC(C)c1nn(C2CCCCC2)c2nc(C(=O)NS(C)(=O)=O)cc(-c3ccc(N4CCOCC4)nc3)c12 [Compound 44, 1-cyclohexyl-N-(methanesulfonyl)-4-[6-(morpholin-4-yl)pyridin-3-yl]-3-(propan-2-yl)-1H-pyrazolo[3,4-b]pyridine-6-carboxamide] | 203.87 | 404 | 412.63 | 276 |
| O=C(NS(=O)(=O)CC(F)(F)F)c1cc(N2CCC(N3CCOCC3)CC2)c2c(C3CCC3)nn(-c3ccc(F)cc3)c2n1 [Compound 486, 3-cyclobutyl-1-(4-fluorophenyl)-4-[4-(morpholin-4-yl)piperidin-1-yl]-N-(2,2,2-trifluoroethanesulfonyl)-1H-pyrazolo[3,4-b]pyridine-6-carboxamide] | 332.5 | 467 | 569 | 181 |
